The source of these data is US10576062B2, “Carbamoyloxymethyl triazole cyclohexyl acids as LPA antagonists” (Bristol-Myers Squibb Company, priority 2016, dated 2020).

Each structure is given as a SMILES string.

The test deals with T1, human LPA1 (Homo sapiens, UniProt Q92633).
T1 construct: expressed in transfected cells; host or cells: Chinese hamster ovary (CHO) cells
T1 sequence (Q92633 whole entry): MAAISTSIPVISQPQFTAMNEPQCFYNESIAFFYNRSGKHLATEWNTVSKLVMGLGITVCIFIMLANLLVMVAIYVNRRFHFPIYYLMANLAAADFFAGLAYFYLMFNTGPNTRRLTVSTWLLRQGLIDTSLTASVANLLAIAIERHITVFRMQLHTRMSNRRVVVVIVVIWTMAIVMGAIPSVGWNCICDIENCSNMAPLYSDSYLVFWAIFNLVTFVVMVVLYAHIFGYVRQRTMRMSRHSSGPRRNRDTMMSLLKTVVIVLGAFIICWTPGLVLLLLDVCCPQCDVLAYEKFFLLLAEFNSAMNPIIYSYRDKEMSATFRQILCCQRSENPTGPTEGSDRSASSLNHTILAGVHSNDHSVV
The experiment in a line: LPA1 functional antagonist assay (LPA-induced calcium flux). Format: cell-based. As to conditions: read-out: hLPA1 IC50. An outline of the steps: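 CHO cells overexpressing human LPA1, loaded with calcium dye 30 min at 37° C, were preincubated 20 min at room temperature with compound (0.08 nM–5 μM, 0.5% DMSO) in HBSS/20 mM HEPES/0.1% fatty acid-free BSA.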
In general terms: A change in cytosolic calcium serves as a functional read-out for many receptors and channels.
Usually IC50 stands for the concentration that inhibits the measured activity by half. As for `Cc1cc(-c2nnn(C)c2COC(=O)N(C)Cc2ccccc2)ccc1O[C@H]1CCC[C@H](C(=O)O)C1` [Example 38, (1S,3S)-3-(4-(5-(((benzyl(methyl)carbamoyl)oxy)methyl)-1-methyl-1H-1,2,3-triazol-4-yl)-2-methylphenoxy)cyclohexane-1-carboxylic acid], the IC50 came out at 32 nM.

With `CCCCN(C)C(=O)OCc1c(-c2ccc(O[C@H]3CCC[C@H](C(=O)O)C3)c(C)c2)nnn1C` [Example 40, (1S,3S)-3-(4-(5-(((butyl(methyl)carbamoyl)oxy)methyl)-1-methyl-1H-1,2,3-triazol-4-yl)-2-methylphenoxy)cyclohexane-1-carboxylic acid], the IC50 came out at 28 nM.

Take `Cc1cc(-c2nnn(C)c2COC(=O)N(C)C2CCCC2)ccc1O[C@H]1CCC[C@H](C(=O)O)C1` [Example 41, (1S,3S)-3-(4-(5-(((cyclopentyl(methyl)carbamoyl)oxy)methyl)-1-methyl-1H-1,2,3-triazol-4-yl)-2-methylphenoxy)cyclohexane-1-carboxylic acid]: the IC50 came to 14 nM.

For `Cc1cc(-c2nnn(C)c2COC(=O)N(C)CCC(C)C)ncc1O[C@H]1CCC[C@H](C(=O)O)C1` [Example 42, (1S,3S)-3-((6-(5-(((isopentyl(methyl)carbamoyl)oxy)methyl)-1-methyl-1H-1,2,3-triazol-4-yl)-4-methylpyridin-3-yl)oxy)cyclohexane-1-carboxylic acid], the IC50 worked out at 3750 nM.

For `CCCCN(C)C(=O)OCc1c(-c2ccc(O[C@H]3CCC[C@H](C(=O)O)C3)cn2)nnn1C` [Example 43, (1S,3S)-3-((6-(5-(((butyl(methyl)carbamoyl)oxy)methyl)-1-methyl-1H-1,2,3-triazol-4-yl)pyridin-3-yl)oxy)cyclohexane-1-carboxylic acid], the IC50 is 7 nM.

Turning to `CN(C(=O)OCc1c(-c2ccc(O[C@H]3CCC[C@H](C(=O)O)C3)c(F)c2)nnn1C)C1CCCC1` [Example 44, (1S,3S)-3-(4-(5-(((cyclopentyl(methyl)carbamoyl)oxy)methyl)-1-methyl-1H-1,2,3-triazol-4-yl)-2-fluorophenoxy)cyclohexane-1-carboxylic acid], the IC50 came to 6 nM.

As to `CCCCN(C)C(=O)OCc1c(-c2ccc(O[C@H]3CCC[C@H](C(=O)O)C3)c(F)c2)nnn1C` [Example 46, (1S,3S)-3-(4-(5-(((butyl(methyl)carbamoyl)oxy)methyl)-1-methyl-1H-1,2,3-triazol-4-yl)-2-fluorophenoxy)cyclohexane-1-carboxylic acid], the IC50 came to 6 nM.

Turning to `CC(C)CCN(C)C(=O)OCc1c(-c2ccc(O[C@H]3CCC[C@H](C(=O)O)C3)c(F)c2)nnn1C` [Example 47, (1S,3S)-3-(2-fluoro-4-(5-(((isopentyl(methyl)carbamoyl)oxy)methyl)-1-methyl-1H-1,2,3-triazol-4-yl)phenoxy)cyclohexane-1-carboxylic acid], the IC50 came out at 3 nM.

Consider `C[C@@H](C1CC1)N(C)C(=O)OCc1c(-c2ccc(O[C@H]3CCC[C@H](C(=O)O)C3)cc2)nnn1C` [Example 52, (1S,3S)-3-(4-(5-(((((S)-1-cyclopropylethyl)(methyl)carbamoyl)oxy)methyl)-1-methyl-1H-1,2,3-triazol-4-yl)phenoxy)cyclohexane-1-carboxylic acid], for which the IC50 was 197 nM.

As for `CC(C)CN(C)C(=O)OCc1c(-c2ccc(O[C@H]3CCC[C@H](C(=O)O)C3)cc2)nnn1C` [Example 53, (1S,3S)-3-(4-(5-(((isobutyl(methyl)carbamoyl)oxy)methyl)-1-methyl-1H-1,2,3-triazol-4-yl)phenoxy)cyclohexane-1-carboxylic acid], the IC50 turned out to be 440 nM.

Turning to `C[C@H](C1CC1)N(C)C(=O)OCc1c(-c2ccc(O[C@H]3CCC[C@H](C(=O)O)C3)c(F)c2)nnn1C` [Example 70, (1S,3S)-3-(4-(5-(((((R)-1-cyclopropylethyl)(methyl)carbamoyl)oxy)methyl)-1-methyl-1H-1,2,3-triazol-4-yl)-2-fluorophenoxy)cyclohexane-1-carboxylic acid], the IC50 worked out at 10 nM.

`CN(C(=O)OCc1c(-c2ccc(O[C@@H]3CCC[C@@H](C(=O)NS(C)(=O)=O)C3)cc2)nnn1C)C1CCCC1` [Example 72, (1-Methyl-4-(4-(((1R,3R)-3-((methylsulfonyl)carbamoyl)cyclohexyl)oxy)phenyl)-1H-1,2,3-triazol-5-yl)methyl cyclopentyl(methyl)carbamate]: the IC50 was 2780 nM.

`CN(C(=O)OCc1c(-c2ccc(O[C@H]3CCC[C@H](C(=O)O)C3)cc2)nnn1C)C1CCC1` [Example 73, (1S,3S)-3-(4-(5-(((cyclobutyl(methyl)carbamoyl)oxy)methyl)-1-methyl-1H-1,2,3-triazol-4-yl)phenoxy)cyclohexane-1-carboxylic acid]: the IC50 was determined as 62 nM.

Take `CN(C(=O)OCc1c(-c2ccc(O[C@H]3CCC[C@H](C(=O)O)C3)cc2)nnn1C)C(C1CC1)C1CC1` [Example 74, (1S,3S)-3-(4-(5-((((Dicyclopropylmethyl)(methyl)carbamoyl)oxy)methyl)-1-methyl-1H-1,2,3-triazol-4-yl)phenoxy)cyclohexanecarboxylic acid]: the IC50 amounted to 100 nM.

Take `CCCC1(N(C)C(=O)OCc2c(-c3ccc(O[C@H]4CCC[C@H](C(=O)O)C4)cc3)nnn2C)CC1` [Example 75, (1S,3S)-3-(4-(1-methyl-5-(((methyl(1-propylcyclopropyl)carbamoyl)oxy)methyl)-1H-1,2,3-triazol-4-yl)phenoxy)cyclohexane-1-carboxylic acid]: the IC50 was 20 nM.

Consider `CCC(CC)N(C)C(=O)OCc1c(-c2ccc(O[C@H]3CCC[C@H](C(=O)O)C3)cc2)nnn1C` [Example 76, (1S,3S)-3-(4-(1-methyl-5-(((methyl(pentan-3-yl)carbamoyl)oxy)methyl)-1H-1,2,3-triazol-4-yl)phenoxy)cyclohexane-1-carboxylic acid], for which the IC50 came to 47 nM.

Take `CCCC(C)(C)N(C)C(=O)OCc1c(-c2ccc(O[C@H]3CCC[C@H](C(=O)O)C3)cn2)nnn1C` [Example 78, (1S,3S)-3-((6-(1-methyl-5-(((methyl(2-methylpentan-2-yl)carbamoyl)oxy)methyl)-1H-1,2,3-triazol-4-yl)pyridin-3-yl)oxy)cyclohexane-1-carboxylic acid]: the IC50 was found to be 27 nM.

In the case of `CN(C(=O)OCc1c(-c2ccc(O[C@H]3CCC[C@H](C(=O)O)C3)cn2)nnn1C)C1(C)CC1` [Example 79, (1S,3S)-3-((6-(1-methyl-5-(((methyl(1-methylcyclopropyl)carbamoyl)oxy)methyl)-1H-1,2,3-triazol-4-yl)pyridin-3-yl)oxy)cyclohexane-1-carboxylic acid], the IC50 came to 45 nM.

As for `CN(C(=O)OCc1c(-c2ccc(O[C@H]3CCC[C@H](C(=O)O)C3)cn2)nnn1C)C(C1CC1)C1CC1` [Example 80, (1S,3S)-3-((6-(5-((((Dicyclopropylmethyl)(methyl)carbamoyl)oxy)methyl)-1-methyl-1H-1,2,3-triazol-4-yl)pyridin-3-yl)oxy)cyclohexanecarboxylic acid], the IC50 was determined as 60 nM.

Turning to `CCCC1(N(C)C(=O)OCc2c(-c3ccc(O[C@H]4CCC[C@H](C(=O)O)C4)cn3)nnn2C)CC1` [Example 81, (1S,3S)-3-((6-(1-methyl-5-(((methyl(1-propylcyclopropyl)carbamoyl)oxy)methyl)-1H-1,2,3-triazol-4-yl)pyridin-3-yl)oxy)cyclohexane-1-carboxylic acid], the IC50 stood at 61 nM.

As to `[2H]C([2H])([2H])n1nnc(-c2ccc(O[C@H]3CCC[C@H](C(=O)O)C3)cn2)c1COC(=O)N(C)CC1CCC1` [Example 82, (1S,3S)-3-((6-(5-((((cyclobutylmethyl)(methyl)carbamoyl)oxy)methyl)-1-(methyl-d3)-1H-1,2,3-triazol-4-yl)pyridin-3-yl)oxy)cyclohexane-1-carboxylic acid], the IC50 worked out at 28 nM.

Regarding `CCC(CC)N(C)C(=O)OCc1c(-c2ccc(O[C@H]3CCC[C@H](C(=O)O)C3)c(C)n2)nnn1C` [Example 83, (1S,3S)-3-((2-Methyl-6-(1-methyl-5-(((methyl(pentan-3-yl)carbamoyl)oxy)methyl)-1H-1,2,3-triazol-4-yl)pyridin-3-yl)oxy)cyclohexanecarboxylic acid], the IC50 was 92 nM.

For the molecule `CCCC(C)(C)N(C)C(=O)OCc1c(-c2ccc(O[C@H]3CCC[C@H](C(=O)O)C3)c(C)n2)nnn1C` [Example 84, (1S,3S)-3-((2-methyl-6-(1-methyl-5-(((methyl(2-methylpentan-2-yl)carbamoyl)oxy)methyl)-1H-1,2,3-triazol-4-yl)pyridin-3-yl)oxy)cyclohexanecarboxylic acid], the IC50 turned out to be 69 nM.

On to `Cc1nc(-c2nnn(C)c2COC(=O)N(C)C2(C)CC2)ccc1O[C@H]1CCC[C@H](C(=O)O)C1` [Example 85, (1S,3S)-3-((2-methyl-6-(1-methyl-5-(((methyl(1-methylcyclopropyl)carbamoyl)oxy)methyl)-1H-1,2,3-triazol-4-yl)pyridin-3-yl)oxy)cyclohexane-1-carboxylic acid], for which the IC50 was 58 nM.

For the molecule `Cc1nc(-c2nnn(C)c2COC(=O)N(C)C(C2CC2)C2CC2)ccc1O[C@H]1CCC[C@H](C(=O)O)C1` [Example 86, (1S,3S)-3-((6-(5-((((Dicyclopropylmethyl)(methyl)carbamoyl)oxy)methyl)-1-methyl-1H-1,2,3-triazol-4-yl)-2-methylpyridin-3-yl)oxy)cyclohexanecarboxylic acid], the IC50 was determined as 54 nM.

Consider `CCCC1(N(C)C(=O)OCc2c(-c3ccc(O[C@H]4CCC[C@H](C(=O)O)C4)c(C)n3)nnn2C)CC1` [Example 87, (1S,3S)-3-((2-methyl-6-(1-methyl-5-(((methyl(1-propylcyclopropyl)carbamoyl)oxy)methyl)-1H-1,2,3-triazol-4-yl)pyridin-3-yl)oxy)cyclohexane-1-carboxylic acid], for which the IC50 amounted to 36 nM.

As for `CC(OC(=O)N(C)C1CCCC1)c1c(-c2ccc(O[C@H]3CCC[C@H](C(=O)O)C3)cc2)nnn1C` (stereo partly drawn) [Example 94, (1S,3S)-3-(4-(5-(1-((cyclopentyl(methyl)carbamoyl)oxy)ethyl)-1-methyl-1H-1,2,3-triazol-4-yl)phenoxy)cyclohexane-1-carboxylic acid], the IC50 is 241 nM.
